Target: BRD4 (Homo sapiens (Human), UniProt O60885)
Conditions: read-out: BRD4 IC50 (μM gmean)

COC(=O)N1c2ccc3c(nc(C(C)Cn4ccc(Cl)n4)n3C3CCCC(C(=O)O)C3)c2CC[C@@H]1C (stereo partly shown) [Example 459] showed an IC50 of 1 to 1000 µM.

COC(=O)N1c2ccc3c(nc(C(c4ccc(OC)c(F)c4)C(C)C)n3C3CCC(C(=O)O)CC3)c2CC[C@@H]1C (stereo partly shown) [Example 466] gave an IC50 of 1 to 1000 µM.

In the case of COC(=O)N1c2ccc3c(nc(CC(C(=O)O)c4ccc5ccccc5c4)n3C3CCCOC3)c2CC[C@@H]1C (stereo partly shown) [Example 468], the IC50 was 1 to 1000 µM.

COC(=O)N1c2ccc3c(nc(Cc4ccc(C)c(F)c4)n3[C@@H]3CCC[C@@H](C(=O)O)C3)c2CC[C@@H]1C [Example 471] showed an IC50 of 1 to 1000 µM.

COC(=O)N1c2ccc3c(nc(CC(C(=O)O)c4ccccc4)n3C3CCCC(OC)C3)c2CC[C@@H]1C (stereo partly shown) [Example 475] gave an IC50 of 1 to 1000 µM.

With COC(=O)N1c2ccc3c(nc(Cc4ccc(OC)c(F)c4)n3[C@@H]3CCC[C@@H](C(=O)O)C3)c2CC[C@@H]1C [Example 481] the IC50 was 1 to 1000 µM.

COC(=O)N1c2ccc3c(nc(C(C)Cn4ccc(C)n4)n3C3CCCC(C(=O)O)C3)c2CC[C@@H]1C (stereo partly shown) [Example 485] showed an IC50 of 1 to 1000 µM.

In the case of COC(=O)N1c2ccc3c(nc(CC(C(=O)O)c4cccc(F)c4)n3C3CCCOC3)c2CC[C@@H]1C (stereo partly shown) [Example 490], the IC50 was 1 to 1000 µM.

In the case of COC(=O)N1c2ccc3c(nc(C(C)Cn4cc(C(F)F)cn4)n3C3CCCC(C(=O)O)C3)c2CC[C@@H]1C (stereo partly shown) [Example 492], the IC50 was 1 to 1000 µM.

COC(=O)N1c2ccc3c(nc(CC(C(=O)O)c4ccc(Cl)cc4)n3C3CCCOC3)c2CC[C@@H]1C (stereo partly shown) [Example 495] was tested, and the IC50 was 1 to 1000 µM.

In the case of COC(=O)N1c2ccc3c(nc(CC(C(=O)O)c4ccc(C)cc4)n3C3CCCOC3)c2CC[C@@H]1C (stereo partly shown) [Example 497], the IC50 was 1 to 1000 µM.

With COC(=O)N1c2ccc3c(nc(Cc4ccc(F)c(F)c4)n3[C@@H]3CCC[C@@H](C(=O)O)C3)c2CC[C@@H]1C [Example 502] the IC50 was 1 to 1000 µM.

Molecule COC(=O)N1c2ccc3c(nc(C(C)Cn4cc(C(F)F)cn4)n3C3CCC(C(=O)O)CC3)c2CC[C@@H]1C (stereo partly shown) [Example 504] has an IC50 of 1 to 1000 µM.

In the case of COC(=O)N1c2ccc3c(nc(C(CO)c4ccccc4)n3C3CCCC(C(=O)O)C3)c2CC[C@@H]1C (stereo partly shown) [Example 505], the IC50 was 1 to 1000 µM.

Molecule COC(=O)N1c2ccc3c(nc(Cc4ccc(OC)c(Cl)c4)n3[C@H]3CC[C@H](C(=O)O)CC3)c2CC[C@@H]1C [Example 508] has an IC50 of 1 to 1000 µM.

COC(=O)N1c2ccc3c(nc(CCc4ccc(F)c(F)c4)n3[C@@H]3CCC[C@@H](C(=O)O)C3)c2CC[C@@H]1C [Example 509] gave an IC50 of 1 to 1000 µM.

COC(=O)N1c2ccc3c(nc(CC(C(=O)O)c4ccc(F)cc4)n3C3CCCOC3)c2CC[C@@H]1C (stereo partly shown) [Example 510] showed an IC50 of 1 to 1000 µM.

For COC(=O)N1c2ccc3c(nc(Cc4cc(Cl)cc(OC)c4)n3[C@@H]3CCC[C@@H](C(=O)O)C3)c2CC[C@@H]1C [Example 512], the IC50 was 1 to 1000 µM.

In the case of COC(=O)N1c2ccc3c(nc(CCC4CCCC4)n3C3CCCC(C(=O)O)C3)c2CC[C@@H]1C (stereo partly shown) [Example 514], the IC50 was 1 to 1000 µM.

COC(=O)N1c2ccc3c(nc(CC(C(=O)O)c4ccccc4)n3-c3cccc(OC)c3)c2CC[C@@H]1C (stereo partly shown) [Example 516] was tested, and the IC50 was 1 to 1000 µM.

COC(=O)N1c2ccc3c(nc(CCc4ccccc4C(=O)O)n3C3CCCCC3)c2CC[C@@H]1C [Example 521] showed an IC50 of 1 to 1000 µM.

Work on C/C=C(\Oc1ccccc1)c1nc2c3c(ccc2n1[C@@H]1CCC[C@@H](C(=O)O)C1)N(C(=O)OC)[C@@H](C)CC3 [Example 522] yielded an IC50 of 1 to 1000 µM.

Molecule COC(=O)N1c2ccc3c(nc(CC(C(=O)O)c4ccc(C(F)F)cc4)n3C3CCCOC3)c2CC[C@@H]1C (stereo partly shown) [Example 524] has an IC50 of 1 to 1000 µM.

Work on COC(=O)N1c2ccc3c(nc(C(C)Cn4ccc(C)n4)n3C3CCC(C(=O)O)CC3)c2CC[C@@H]1C (stereo partly shown) [Example 526] yielded an IC50 of 1 to 1000 µM.

Work on COC(=O)N1c2ccc3c(nc(Cc4ccc(OC(F)F)cc4)n3[C@@H]3CCC[C@@H](C(=O)O)C3)c2CC[C@@H]1C [Example 533] yielded an IC50 of 1 to 1000 µM.

Work on CCC(O)(c1ccccc1)c1nc2c3c(ccc2n1[C@@H]1CCC[C@@H](C(=O)O)C1)N(C(=O)OC)[C@@H](C)CC3 (stereo partly shown) [Example 534] yielded an IC50 of 1 to 1000 µM.

Work on COC(=O)N1c2ccc3c(nc(CC(C(=O)O)c4ccccc4)n3-c3ccc(OC)cc3)c2CC[C@@H]1C (stereo partly shown) [Example 536] yielded an IC50 of 1 to 1000 µM.

COC(=O)N1c2ccc3c(nc(CC(C(=O)O)c4ccc(C)cc4)n3C3CCCOC3)c2CC[C@@H]1C (stereo partly shown) [Example 539] gave an IC50 of 1 to 1000 µM.

With COC(=O)N1c2ccc3c(nc(Cc4cc(F)cc(OC)c4)n3[C@@H]3CCC[C@@H](C(=O)O)C3)c2CC[C@@H]1C [Example 541] the IC50 was 1 to 1000 µM.

Molecule COC(=O)N1c2ccc3c(nc(C(C)(O)c4ccccc4)n3C3CCCC(C(=O)O)C3)c2CC[C@@H]1C (stereo partly shown) [Example 542] has an IC50 of 1 to 1000 µM.

COC(=O)N1c2ccc3c(nc(Cc4ccc(OC(F)F)cc4)n3[C@H]3CC[C@H](C(=O)O)CC3)c2CC[C@@H]1C [Example 544] was tested, and the IC50 was 1 to 1000 µM.

COC(=O)N1c2ccc3c(nc(Cc4ccc(C)cc4)n3[C@@H]3CCC[C@@H](C(=O)O)C3)c2CC[C@@H]1C [Example 549] showed an IC50 of 1 to 1000 µM.

Work on COC(=O)N1c2ccc3c(nc(CCc4ccc(C)c(F)c4)n3[C@@H]3CCC[C@@H](C(=O)O)C3)c2CC[C@@H]1C [Example 550] yielded an IC50 of 1 to 1000 µM.

Molecule COC(=O)N1c2ccc3c(nc(C(C)Cn4cc(Cl)cn4)n3C3CCC(C(=O)O)CC3)c2CC[C@@H]1C (stereo partly shown) [Example 551] has an IC50 of 1 to 1000 µM.

COC(=O)N1c2ccc3c(nc(Cc4ccc(OC)c(F)c4F)n3[C@H]3CC[C@H](C(=O)O)CC3)c2CC[C@@H]1C [Example 553] gave an IC50 of 1 to 1000 µM.

Molecule COC(=O)N1c2ccc3c(nc(Cc4ccccc4C(=O)O)n3C3CCCCC3)c2CC[C@@H]1C [Example 555] has an IC50 of 1 to 1000 µM.

For COC(=O)N1c2ccc3c(nc(C(C)(C)c4ccc(OC)c(F)c4)n3[C@H]3CC[C@H](C(=O)O)CC3)c2CC[C@@H]1C [Example 560], the IC50 was 1 to 1000 µM.

Work on COC(=O)N1c2ccc3c(nc(Cc4cc(F)ccc4OC)n3[C@H]3CC[C@H](C(=O)O)CC3)c2CC[C@@H]1C [Example 561] yielded an IC50 of 1 to 1000 µM.

With COC(=O)N1c2ccc3c(nc(Cc4ccc(OC5CC5)nc4)n3[C@@H]3CCC[C@@H](C(=O)O)C3)c2CC[C@@H]1C [Example 562] the IC50 was 1 to 1000 µM.

In the case of COC(=O)N1c2ccc3c(nc(CC(C(=O)O)c4ccc(C)cc4)n3C3COCC(F)(F)C3)c2CC[C@@H]1C (stereo partly shown) [Example 563], the IC50 was 1 to 1000 µM.

For COC(=O)N1c2ccc3c(nc(Cc4ccc(OC)cc4)n3[C@@H]3CCC[C@@H](C(=O)O)C3)c2CC[C@@H]1C [Example 568], the IC50 was 1 to 1000 µM.

COC(=O)N1c2ccc3c(nc(C4(Oc5ccccc5)CC4)n3[C@H]3CC[C@H](C(=O)O)CC3)c2CC[C@@H]1C [Example 574] showed an IC50 of 1 to 1000 µM.

For COC(=O)N1c2ccc3c(nc(CC4CCCCC4)n3[C@@H]3CCC[C@@H](C(=O)O)C3)c2CC[C@@H]1C [Example 575], the IC50 was 1 to 1000 µM.

In the case of COC(=O)N1c2ccc3c(nc(Cc4ccc5[nH]ccc5c4)n3[C@@H]3CCC[C@@H](C(=O)O)C3)c2CC[C@@H]1C [Example 577], the IC50 was 1 to 1000 µM.

COC(=O)N1c2ccc3c(nc(CC(C(=O)O)c4cccc5ccccc45)n3C3CCCOC3)c2CC[C@@H]1C (stereo partly shown) [Example 580] was tested, and the IC50 was 1 to 1000 µM.

Work on COC(=O)N1c2ccc3c(nc(Cc4ccc(N(C)C)c(F)c4)n3[C@H]3CC[C@H](C(=O)O)CC3)c2CC[C@@H]1C [Example 581] yielded an IC50 of 1 to 1000 µM.

With COC(=O)N1c2ccc3c(nc(C(CO)c4ccccc4)n3C3CCC(C(=O)O)CC3)c2CC[C@@H]1C (stereo partly shown) [Example 582] the IC50 was 1 to 1000 µM.

Molecule COC(=O)N1c2ccc3c(nc(C(C)Cn4cccn4)n3C3CCCC(C(=O)O)C3)c2CC[C@@H]1C (stereo partly shown) [Example 583] has an IC50 of 1 to 1000 µM.

For COC(=O)N1c2ccc3c(nc(CC(C(=O)O)c4ccc(C(F)F)cc4)n3C3CCCOC3)c2CC[C@@H]1C (stereo partly shown) [Example 584], the IC50 was 1 to 1000 µM.

COC(=O)N1c2ccc3c(nc(C4(N5CCCCC5=O)CC4)n3[C@@H]3CCC[C@@H](C(=O)O)C3)c2CC[C@@H]1C [Example 588] was tested, and the IC50 was 1 to 1000 µM.

COC(=O)N1c2ccc3c(nc(C(O)c4cc5ccoc5cn4)n3C3CCCC(C(=O)O)C3)c2CC[C@@H]1C (stereo partly shown) [Example 589] was tested, and the IC50 was 1 to 1000 µM.

Molecule COC(=O)N1c2ccc3c(nc(N(C)c4ccc(C)cc4)n3[C@@H]3CCC[C@@H](C(=O)O)C3)c2CC[C@@H]1C [Example 591] has an IC50 of 1 to 1000 µM.

COC(=O)N1c2ccc3c(nc(Cc4cccc(OC(F)F)n4)n3[C@@H]3CCC[C@@H](C(=O)O)C3)c2CC[C@@H]1C [Example 593] was tested, and the IC50 was 1 to 1000 µM.

Work on COC(=O)N1c2ccc3c(nc(CC(C(=O)O)c4ccccc4)n3C3COCC(F)(F)C3)c2CC[C@@H]1C (stereo partly shown) [Example 594] yielded an IC50 of 1 to 1000 µM.

In the case of COC(=O)N1c2ccc3c(nc(C(O)CC4CCC(F)(F)CC4)n3C3CCCC(C(=O)O)C3)c2CC[C@@H]1C (stereo partly shown) [Example 596], the IC50 was 1 to 1000 µM.

Molecule COC(=O)N1c2ccc3c(nc(Cc4cccc(F)c4)n3[C@@H]3CCC[C@@H](C(=O)O)C3)c2CC[C@@H]1C [Example 601] has an IC50 of 1 to 1000 µM.

Molecule COC(=O)N1c2ccc3c(nc(CC(C(=O)O)c4ccccc4)n3C3COCC(F)(F)C3)c2CC[C@@H]1C (stereo partly shown) [Example 602] has an IC50 of 1 to 1000 µM.

Work on COC(=O)N1c2ccc3c(nc(C(C)(O)c4ccccc4)n3C3CCCC(C(=O)O)C3)c2CC[C@@H]1C (stereo partly shown) [Example 607] yielded an IC50 of 1 to 1000 µM.

COC(=O)N1c2ccc3c(nc(C(O)c4ccc(Cl)cn4)n3C3CCCC(C(=O)O)C3)c2CC[C@@H]1C (stereo partly shown) [Example 610] gave an IC50 of 1 to 1000 µM.

In the case of COC(=O)N1c2ccc3c(nc(Cc4cncc(C(C)C)n4)n3[C@@H]3CCC[C@@H](C(=O)O)C3)c2CC[C@@H]1C [Example 611], the IC50 was 1 to 1000 µM.

COC(=O)N1c2ccc3c(nc(N(C)c4cccc(F)c4)n3[C@H]3CC[C@H](C(=O)O)CC3)c2CC[C@@H]1C [Example 613] was tested, and the IC50 was 1 to 1000 µM.

Work on COC(=O)N1c2ccc3c(nc(CC4CCCCC4O)n3C3CCCC(C(=O)O)C3)c2CC[C@@H]1C (stereo partly shown) [Example 614] yielded an IC50 of 1 to 1000 µM.

COC(=O)N1c2ccc3c(nc(Cc4cccc(Cl)c4)n3[C@@H]3CCC[C@@H](C(=O)O)C3)c2CC[C@@H]1C [Example 616] showed an IC50 of 1 to 1000 µM.

COC(=O)N1c2ccc3c(nc(C4(n5cc(Cl)cn5)CC4)n3[C@H]3CC[C@H](C(=O)O)CC3)c2CC[C@@H]1C [Example 617] was tested, and the IC50 was 1 to 1000 µM.

COC(=O)N1c2ccc3c(nc(Cc4ccc(OC(F)F)nc4)n3[C@@H]3CCC[C@@H](C(=O)O)C3)c2CC[C@@H]1C [Example 619] showed an IC50 of 1 to 1000 µM.

Molecule COC(=O)N1c2ccc3c(nc(CC(C(=O)O)c4ccc(C5CC5)cc4)n3C3CCCOC3)c2CC[C@@H]1C (stereo partly shown) [Example 620] has an IC50 of 1 to 1000 µM.

Molecule COC(=O)N1c2ccc3c(nc(C(C)CC4CCOCC4)n3C3CCCC(C(=O)O)C3)c2CC[C@@H]1C (stereo partly shown) [Example 622] has an IC50 of 1 to 1000 µM.

From US11292791B2 (priority 2017, dated 2022)
